Results from ChEMBL document CHEMBL1201862, “PubChem BioAssay data set” (2004).
Active and inactive are the calls of the source.

Columns and labels:
[1] = target: T1, Replicative DNA helicase DnaB (Mycobacterium tuberculosis, UniProt P9WMR3); test: DnaB intein splicing inhibitors, dose response, biochemical, cell-free fluorescence (AID 449749); assay type: functional
T1 sequence (P9WMR3 whole entry): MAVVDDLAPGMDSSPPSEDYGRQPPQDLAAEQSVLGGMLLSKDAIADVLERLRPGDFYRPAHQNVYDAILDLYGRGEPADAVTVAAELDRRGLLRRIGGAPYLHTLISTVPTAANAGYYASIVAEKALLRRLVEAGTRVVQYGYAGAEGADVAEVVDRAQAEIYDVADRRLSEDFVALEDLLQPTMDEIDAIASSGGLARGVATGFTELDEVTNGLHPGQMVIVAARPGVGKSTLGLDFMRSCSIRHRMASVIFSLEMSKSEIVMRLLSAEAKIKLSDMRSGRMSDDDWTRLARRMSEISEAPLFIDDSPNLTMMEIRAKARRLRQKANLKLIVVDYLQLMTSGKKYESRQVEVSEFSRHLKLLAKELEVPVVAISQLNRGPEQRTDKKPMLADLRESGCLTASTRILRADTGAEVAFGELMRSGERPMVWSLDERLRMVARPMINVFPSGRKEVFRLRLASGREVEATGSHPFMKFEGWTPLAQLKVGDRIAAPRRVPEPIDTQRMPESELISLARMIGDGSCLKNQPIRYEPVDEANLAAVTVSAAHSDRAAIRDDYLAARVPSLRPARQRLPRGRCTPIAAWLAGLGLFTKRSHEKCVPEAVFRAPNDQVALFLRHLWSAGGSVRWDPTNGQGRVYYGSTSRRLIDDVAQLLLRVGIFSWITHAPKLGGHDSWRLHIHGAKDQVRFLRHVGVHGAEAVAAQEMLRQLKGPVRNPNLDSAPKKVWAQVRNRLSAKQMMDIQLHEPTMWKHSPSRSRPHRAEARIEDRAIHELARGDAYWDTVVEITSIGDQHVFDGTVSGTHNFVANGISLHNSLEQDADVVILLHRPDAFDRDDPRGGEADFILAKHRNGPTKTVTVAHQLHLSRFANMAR

Protein RecA = target: T2, Protein RecA (Mycobacterium tuberculosis, UniProt P9WHJ3); test: Fluorescence Cell-Free Homogeneous Dose Retest to Identify Inhibitors of RecA-Intein Splicing Activity. [Related pubchem assays (depositor defined):AID2097, AID2223, AID489010, AID492950]; assay type: functional
T2 sequence (P9WHJ3 whole entry): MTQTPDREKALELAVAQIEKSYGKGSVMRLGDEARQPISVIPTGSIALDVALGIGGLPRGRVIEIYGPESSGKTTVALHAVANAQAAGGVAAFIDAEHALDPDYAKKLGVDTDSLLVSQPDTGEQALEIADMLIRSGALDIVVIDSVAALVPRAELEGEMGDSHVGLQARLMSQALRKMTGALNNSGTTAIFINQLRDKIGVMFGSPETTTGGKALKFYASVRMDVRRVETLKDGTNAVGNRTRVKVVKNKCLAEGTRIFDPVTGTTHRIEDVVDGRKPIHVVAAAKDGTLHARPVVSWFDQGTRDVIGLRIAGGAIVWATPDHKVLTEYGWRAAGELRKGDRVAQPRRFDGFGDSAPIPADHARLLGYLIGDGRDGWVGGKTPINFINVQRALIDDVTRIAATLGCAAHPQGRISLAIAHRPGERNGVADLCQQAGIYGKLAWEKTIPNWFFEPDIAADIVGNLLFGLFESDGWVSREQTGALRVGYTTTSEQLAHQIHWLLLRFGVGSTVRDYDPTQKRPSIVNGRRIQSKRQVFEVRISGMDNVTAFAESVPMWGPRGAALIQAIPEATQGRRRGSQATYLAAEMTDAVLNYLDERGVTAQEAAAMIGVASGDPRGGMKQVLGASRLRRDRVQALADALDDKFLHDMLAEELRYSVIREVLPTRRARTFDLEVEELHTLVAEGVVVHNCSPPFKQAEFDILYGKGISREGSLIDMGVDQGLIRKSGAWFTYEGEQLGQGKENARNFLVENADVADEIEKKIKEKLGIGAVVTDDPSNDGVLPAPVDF

[2] = target: T3, Tyrosyl-DNA phosphodiesterase 2 (Homo sapiens, UniProt O95551); test: potency against TDP2 phosphodiesterase activity – biochemical, epi absorbance, IC50, dose response (AID 743297)
T3 sequence (O95551 whole entry): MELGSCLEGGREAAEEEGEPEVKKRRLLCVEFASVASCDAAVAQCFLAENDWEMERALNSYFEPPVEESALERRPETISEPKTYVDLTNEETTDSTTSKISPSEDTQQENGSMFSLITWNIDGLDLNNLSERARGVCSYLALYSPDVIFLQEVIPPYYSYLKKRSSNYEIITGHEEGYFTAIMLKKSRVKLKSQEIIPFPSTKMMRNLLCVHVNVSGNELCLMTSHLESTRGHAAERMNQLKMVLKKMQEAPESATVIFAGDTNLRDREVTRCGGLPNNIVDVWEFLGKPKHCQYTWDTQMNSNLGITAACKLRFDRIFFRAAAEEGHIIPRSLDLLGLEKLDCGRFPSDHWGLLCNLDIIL

SMILES	AC50 [1]	EC50 (Protein RecA)	IC50 [2]
Cc1ccc(C(=O)NC2(O)C(=O)c3ccccc3C2=O)cc1C	6.24 µM (active)	15.9 µM (active)	5.74 µM (active)
O=[N+]([O-])c1c(Nc2ccccn2)cc(Cl)c2nonc12	1.79 µM (active)	1.02 µM (active)	99.4 µM (inactive)
Cc1ccc(S(=O)(=O)/N=C2\C=C(Nc3cccc(C(=O)O)c3)C(=O)c3ccccc32)cc1	0.516 µM (active)	0.266 µM (active)	3.18 µM (active)
